Source: patent US8299068B2, “Therapeutically active cyclopentanes” (Allergan, Inc., priority 2010, dated 2012)

Legend:
[1] = molecular target: T1, EP2 (Homo sapiens, UniProt P43116); assay: EP2 cAMP functional assay; format: cell-based
Text: (§1) U.S. Pat. No. 7,427,685 incorporated by reference herein, describes the methods used to obtain the in vitro data in Table 2 below.

[2] = molecular target: T1, EP2; assay: EP2 binding (Ki)
Text: as §1

[3] = molecular target: T1, EP2; assay: EP2 Ca2+ signal functional assay; format: cell-based
Text: as §1

[4] = molecular target: T2, EP4 (Homo sapiens, UniProt P35408); assay: EP4 Ca2+ signal functional assay; format: cell-based
Text: as §1

[5] = molecular target: T2, EP4; assay: EP4 binding (Ki)
Text: as §1

[6] = molecular target: T3, DP (Homo sapiens, UniProt Q13258); assay: Other receptors Ca2+ functional assay, DP; format: cell-based
T3 sequence (Q13258 1-359): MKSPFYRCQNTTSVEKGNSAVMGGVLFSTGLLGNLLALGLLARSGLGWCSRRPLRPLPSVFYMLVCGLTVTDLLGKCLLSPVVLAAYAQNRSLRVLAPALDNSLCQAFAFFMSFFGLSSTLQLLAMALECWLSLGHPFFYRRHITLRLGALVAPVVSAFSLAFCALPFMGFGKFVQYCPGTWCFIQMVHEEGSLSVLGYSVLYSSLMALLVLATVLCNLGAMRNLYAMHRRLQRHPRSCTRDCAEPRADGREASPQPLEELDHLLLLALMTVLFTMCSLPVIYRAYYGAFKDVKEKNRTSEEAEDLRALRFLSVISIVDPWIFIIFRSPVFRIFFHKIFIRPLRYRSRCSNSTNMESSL
Text: as §1

[7] = molecular target: T4, EP3 (Homo sapiens, UniProt P43115); assay: Other receptors Ca2+ functional assay, EP3; format: cell-based
T4 sequence (P43115 1-390): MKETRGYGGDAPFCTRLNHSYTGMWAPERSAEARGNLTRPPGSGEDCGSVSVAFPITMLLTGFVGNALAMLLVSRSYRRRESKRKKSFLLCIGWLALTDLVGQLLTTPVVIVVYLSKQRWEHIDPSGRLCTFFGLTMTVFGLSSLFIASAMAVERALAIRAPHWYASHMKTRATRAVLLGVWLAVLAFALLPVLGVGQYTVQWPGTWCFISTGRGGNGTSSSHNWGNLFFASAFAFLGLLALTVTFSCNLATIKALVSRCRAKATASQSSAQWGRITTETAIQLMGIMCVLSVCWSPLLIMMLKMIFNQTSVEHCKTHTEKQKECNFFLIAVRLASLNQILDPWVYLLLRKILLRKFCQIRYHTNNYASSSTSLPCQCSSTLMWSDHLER
Text: as §1

T1 sequence (P43116 whole entry): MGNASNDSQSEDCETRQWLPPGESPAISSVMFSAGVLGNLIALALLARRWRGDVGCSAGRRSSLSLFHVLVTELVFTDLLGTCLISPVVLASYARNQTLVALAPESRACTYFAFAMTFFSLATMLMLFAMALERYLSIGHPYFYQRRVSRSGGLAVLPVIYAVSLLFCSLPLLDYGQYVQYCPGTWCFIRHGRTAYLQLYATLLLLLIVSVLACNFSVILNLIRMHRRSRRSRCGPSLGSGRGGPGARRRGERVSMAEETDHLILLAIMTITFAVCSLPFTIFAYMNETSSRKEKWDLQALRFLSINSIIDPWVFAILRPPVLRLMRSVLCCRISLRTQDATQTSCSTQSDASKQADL
T2 sequence (P35408 whole entry): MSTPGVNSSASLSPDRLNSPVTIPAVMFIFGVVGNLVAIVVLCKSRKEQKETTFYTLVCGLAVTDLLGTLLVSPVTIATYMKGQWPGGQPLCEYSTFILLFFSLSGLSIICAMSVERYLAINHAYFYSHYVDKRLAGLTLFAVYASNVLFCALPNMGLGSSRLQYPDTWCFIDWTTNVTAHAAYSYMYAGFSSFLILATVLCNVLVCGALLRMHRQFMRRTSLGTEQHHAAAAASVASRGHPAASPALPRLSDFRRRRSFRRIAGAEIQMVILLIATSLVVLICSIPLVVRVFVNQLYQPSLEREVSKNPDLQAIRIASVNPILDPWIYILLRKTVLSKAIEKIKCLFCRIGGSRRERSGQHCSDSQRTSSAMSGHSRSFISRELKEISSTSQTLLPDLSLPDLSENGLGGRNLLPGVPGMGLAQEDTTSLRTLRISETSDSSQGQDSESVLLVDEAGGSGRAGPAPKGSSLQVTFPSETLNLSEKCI

Structure (SMILES)	EC50 [1] [nM]	Ki [2] [nM]	EC50 [3] [nM]	EC50 [4] [µM]	Ki [5] [nM]	EC50 [6] [nM]	EC50 [7] [nM]
O=C(O)c1ccc(CCC[C@@H]2[C@@H](/C=C/C3CCCC3)[C@H](O)C[C@H]2Cl)s1 [Entry 2]	0.9	10	3	1.35	2740	191	
O=C(O)c1ccc(CCC[C@@H]2[C@@H](CCC3CCCCC3)[C@H](O)C[C@H]2Cl)s1 [Entry 3]	0.2	0.8	12	6.64	2150	548	9050
CCCCCC1(CC[C@@H]2[C@@H](CCCc3ccc(C(=O)O)s3)[C@H](Cl)C[C@H]2O)CCCCC1 [Entry 5]	152	1040	2410	9.33	5060		

Continued by falling EC50 [1], values first:

EC50 [1] [nM]	Ki [2] [nM]	EC50 [3] [nM]	EC50 [4] [µM]	Ki [5] [nM]	EC50 [6] [nM]	EC50 [7] [nM]	Structure (SMILES)
0.6	9	4	3.07	2620	259		O=C(O)c1ccc(CCC[C@@H]2[C@@H](CCC3CCCC3)[C@H](O)C[C@H]2Cl)s1 [compound 1]
0.5	4	7	3.32	2710	2160	5220	O=C(O)c1ccc(CCC[C@@H]2[C@@H](/C=C/C3CCCCC3)[C@H](O)C[C@H]2Cl)s1 [Entry 4]
